Reference: patent US11214803B2, “Modulators of YAP1 expression” (Ionis Pharmaceuticals, Inc., priority 2019, dated 2022)
Strand notation (5' to 3'): a small letter for the sugar, then the base; units joined by * are phosphorothioate-linked, units joined directly phosphodiester-linked; [ ] holds rarer units or linkages, { } end groups; capitals alone tell only the bases. k = constrained ethyl (cEt); [5mC] = 5-methylcytosine; d = 2'-deoxy (DNA)

Legend:
Type in all cases: cell-based
Yap1 mRNA [1] = assay: Dose-dependent inhibition of human Yap1 in A-431 cells (Example 8, 10,000 cells per well, RTS4814); settings: for Yap1 mRNA, % UTC: A-431 cells, 10,000 cells per well; for IC50 / % UTC (Yap1 mRNA): A-431 cells
In short: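 A-431 cells (10,000/well) dosed with modified oligonucleotides by free uptake; Yap1 mRNA measured ~48 h later with primer-probe set RTS4814, normalized to total RNA (RIBOGREEN). Values are % of untreated control; IC50 from linear regression on log/linear plot.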

Yap1 mRNA [2] = assay: Antisense inhibition of human Yap1 in A-431 cells by cEt gapmers, single dose (Example 3, RTS36584)
In short: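 Free uptake, 2,000 nM, ~48 h, A-431 cells. Gapmers: 16-mer 3-10-3 cEt wings, PS backbone, 5-MeC. Readout qRT-PCR, RiboGreen-normalized, % UTC.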

Yap1 mRNA [3] = assay: Antisense inhibition of human Yap1 in SNU-449 cells by modified oligonucleotides, single dose (Example 5, RTS36584); settings: Table 48; Yap1 mRNA level relative to untreated control; modified oligonucleotides targeting SEQ ID NO.: 1 and 2
In short: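 Free uptake, 2,000 nM, ~48 h, SNU-449 at 10,000 cells/well. Read-out: qRT-PCR (RTS36584), RIBOGREEN-normalised, expressed as % UTC. Asterisk = oligo hits amplicon region.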

[4] = 31.3 nM, free uptake, approximately 48 hours, RTS4814
[5] = 125.0 nM, free uptake, approximately 48 hours, RTS4814
[6] = 500.0 nM, free uptake, approximately 48 hours, RTS4814
[7] = 2000.00 nM, free uptake, approximately 48 hours, RTS4814
[8] = free uptake, approximately 48 hours, RTS4814, linear regression on log/linear plot
[9] = Table 27, Yap1 mRNA by 3-10-3 cEt gapmers targeting SEQ ID NO.: 1, and 2, percent of untreated control
[10] = Table 28, Yap1 mRNA as percent of untreated control, 3-10-3 cEt gapmers targeting SEQ ID NO.: 1, and 2

Substance	Yap1 mRNA, % UTC (Yap1 mRNA [1]; [4]) [% UTC]	Yap1 mRNA, % UTC (Yap1 mRNA [1]; [5]) [% UTC]	Yap1 mRNA, % UTC (Yap1 mRNA [1]; [6]) [% UTC]	Yap1 mRNA, % UTC (Yap1 mRNA [1]; [7]) [% UTC]	IC50 (Yap1 mRNA [1]; [8]) [nM]	YAP1 (% UTC) (Yap1 mRNA [2]; [10])	also measured
1076397 (antisense kA*kA*k[5mC]*d[5mC]*dT*dA*dT*dA*dT*dT*dT*dG*dA*kG*k[5mC]*k[5mC]) [compound 1076397]	43	14	5	4	< 20		YAP1 (% UTC) (Yap1 mRNA [2]; [9]): 4 % UTC
1076174 (kG*kA*kT*dA*dT*dA*dT*dG*dG*dT*dA*dG*d[5mC]*kA*kT*kA; antisense) [compound 1076174]	58	21	7	4	< 20	3	
1074229 (antisense kG*kA*kA*dG*dA*d[5mC]*dT*dG*dT*d[5mC]*dG*dA*dA*kG*kA*kT) [compound 1074229]							% UTC (Yap1 mRNA) (Yap1 mRNA [1]; 31.3 nM): 58 % UTC; % UTC (Yap1 mRNA) (Yap1 mRNA [1]; 125.0 nM): 24 % UTC; % UTC (Yap1 mRNA) (Yap1 mRNA [1]; 500.0 nM): 9 % UTC; % UTC (Yap1 mRNA) (Yap1 mRNA [1]; 2000.00 nM): 5 % UTC; IC50 (Yap1 mRNA [1]; Yap1 mRNA): < 20 nM; YAP1 (% UTC) (Yap1 mRNA [2]; Table 35, Yap1 mRNA as percent of untreated control, 3-10-3 cEt gapmers targeting SEQ ID NO: 1 and 2, single dose): 5 % UTC
1074351 (antisense kA*kT*kG*d[5mC]*dT*dT*dA*dG*dT*d[5mC]*d[5mC]*dA*d[5mC]*kT*kG*kT) [compound 1074351]	69	33	13	7	100		YAP1 (% UTC) (Yap1 mRNA [2]; Table 29, Yap1 mRNA as percent of untreated control, 3-10-3 cEt gapmers targeting SEQ ID NO.: 1, and 2): 7 % UTC
1076340 (antisense kT*kA*kA*dT*dA*dT*d[5mC]*d[5mC]*dT*d[5mC]*dA*dT*d[5mC]*kA*kG*k[5mC]) [compound 1076340]							% UTC (Yap1 mRNA) (Yap1 mRNA [1]; 31.3 nM): 79 % UTC; % UTC (Yap1 mRNA) (Yap1 mRNA [1]; 125.0 nM): 42 % UTC; % UTC (Yap1 mRNA) (Yap1 mRNA [1]; 500.0 nM): 17 % UTC; % UTC (Yap1 mRNA) (Yap1 mRNA [1]; 2000.00 nM): 11 % UTC; IC50 (Yap1 mRNA [1]; Yap1 mRNA): 100 nM; YAP1 (% UTC) (Yap1 mRNA [2]; Table 34, Yap1 mRNA as percent of untreated control, 3-10-3 cEt gapmers targeting SEQ ID NO: 1 and 2, single dose): 8 % UTC
1074638 (antisense kA*kG*kA*dT*dT*dT*dT*dG*dT*dA*dA*dT*dT*kG*kG*kG) [compound 1074638]	14	4	3	3	< 20	2	
1075246 (kG*kA*kT*dA*dA*d[5mC]*dT*dA*dG*dT*dA*dA*d[5mC]*k[5mC]*kG*kT; antisense) [compound 1075246]	70	34	12	6	100	6	
1076430 (k[5mC]*kG*kT*dT*dA*dT*dA*dA*dG*dA*dT*dG*dT*kG*k[5mC]*kT; antisense) [compound 1076430]	42	14	6	4	< 20	4	
1076462 (kT*k[5mC]*kA*dG*dA*dA*dG*dG*dA*dT*dA*dT*dG*k[5mC]*kA*kG; antisense) [compound 1076462]	61	22	8	5	30	6	
1074413 (kA*k[5mC]*kT*dG*dT*dG*dA*dA*dA*dG*dA*dG*dG*kT*k[5mC]*kA; antisense) [compound 1074413]	50	19	6	3	< 20		YAP1 (% UTC) (Yap1 mRNA [2]; [9]): 4 % UTC
958590 (kA*kG*kG*dT*dA*dT*dA*dA*d[5mC]*dT*dG*dG*dG*k[5mC]*kA*kA) [Compound 958590]							YAP1 (% UT) (Yap1 mRNA [3]): 18 % UT; YAP1 (% UTC) (Yap1 mRNA [2]; Table 13, A-431 cells, 5,000 cells per well, free uptake, 2,000 nM modified oligonucleotide, approx. 48 hours, RTS36584, normalized to RIBOGREEN, Yap1 mRNA relative to untreated control cells): 2 % UTC
